Results reported in a melting point compilation (Tetko et al.; mined from patent text by program, amines drawn as free bases though some values may be those of a salt).

Row | Compound | melting point
1 | Cc1ccc(NC(=O)N2CC(C)(C)NC(C)(C)CC2=O)cc1 | 126 °C
2 | CC(C)c1nc(-c2ccccc2)nc(-c2ccc(F)cc2)c1C=C(Br)Br | 95 to 98 °C
3 | Cc1c(-c2ccc(OCc3ccccc3)cc2)n(Cc2ccc(OCCCN3CCCCC3)cc2)c2ccc(OCc3ccccc3)cc12 | 104 to 106 °C
4 | CCCc1nc2ccccc2n1Cc1ccc(-c2ncccc2C(=O)O)cc1 | 238 to 239 °C
5 | CCOc1cc(N(CC)CC)ccc1-c1nc2n(C3CCCC3)[nH]c(CC)c-2c(=O)n1 | 138 to 139 °C
6 | CCCc1cc(NC(=O)c2c(C)nn(C)c2C)c(C)c(-c2cc(CCC)c(C(C(F)(F)F)C(F)(F)F)cc2C)c1 | 128 to 131 °C
7 | CCCc1c(OCc2ccc(CBr)cc2)ccc(C(C)=O)c1O | 98 to 99 °C
8 | N#Cc1nn(-c2c(Cl)cc(C(F)(F)F)cc2Cl)c(C=O)c1SC(F)(F)F | 90 °C
9 | COCc1c(C(O)c2ccccc2)ncc2c1c1cc(OCc3ccccc3)ccc1n2S(=O)(=O)c1ccc(C)cc1 (stereo unspecified) | 146 to 147 °C
10 | CCCC(O)c1cnc2nc(C)c(OCC)cc2c1Nc1ccc(OC)cc1 (stereo unspecified) | 120 to 124 °C
11 | CC(C)(C)C(NC(=O)c1ccc(Cl)cc1)NC(=NC#N)Nc1c(F)cccc1F (stereo unspecified) | 211 to 213 °C
12 | CCCCNC(=O)NS(=O)(=O)c1c(Cl)cccc1-c1ccccc1 | 184 to 186 °C
13 | Cn1nc2c(N)nc3ccccc3c2c1CC1(F)CCOCC1 | 252 to 254 °C
14 | Cc1c(C)c2c(c(C)c1O)CCC(C)(CCOC(=O)C(C)c1ccc(-c3ccccc3)c(F)c1)O2 (stereo unspecified) | 85 to 87 °C
15 | COc1ccc(S(=O)(=O)C(CCCCOc2ccccc2)(Cc2cccnc2)C(=O)NO)cc1 (stereo unspecified) | 68 °C
16 | CCN(CC)C(=O)C=Cc1cccc([N+](=O)[O-])c1C | 74.3 °C
17 | CCOC(=O)C(C)(C)OC(=O)c1cc(-n2c(=O)cc(C(F)(F)F)[nH]c2=O)ccc1Cl | 176 to 177 °C
18 | CCC1(COC(=O)C(C)(C)C)COC(=O)C(CC)(CC)N1 (stereo unspecified) | 37 to 41 °C
19 | COc1ccc2c(c1)CCC1=C2CCC2(C(C)C)C(=O)CC=C12 (stereo unspecified) | 112 to 113 °C
20 | FC(F)(F)Oc1ccc(-c2cc(-n3ccc(C(F)(F)F)n3)c3ccccc3n2)cc1 | 108 to 110 °C
21 | Oc1ccc(Oc2ccc(Br)cc2F)cc1 | 83.5 to 85 °C
22 | CC(=NO)c1ccc(Cl)c(S(N)(=O)=O)c1 | 157 to 158 °C
23 | COC(=O)c1c(Cl)cc(Cl)cc1NC(=O)CSc1ccc(NS(=O)(=O)c2ccc(Cl)cc2)cc1 | 120 to 123 °C
24 | CCC(O)(c1ccc(OCCCN2CCCCC2)cc1)c1cccc(C(F)(F)F)c1 (stereo unspecified) | 124 to 125 °C

Row | Compound | melting point
25 | COc1cc(C(=O)N2CCC3(CC2)Cc2ccccc2O3)cc(OC)c1OC | 148 to 150 °C
26 | Clc1ccc(-c2nc3cc(Cl)ccc3o2)cc1 | 178 to 183 °C
27 | C=CCOc1ccccc1C1C(C(=O)OCC)=C(C)NC(C#N)=C1C(=O)OCC (stereo unspecified) | 143 to 145 °C
28 | CC(C)(C)OC(=O)N1CCCCN1C(=O)OCc1ccccc1 | 71 to 72 °C
29 | CCc1cc(OC)cc(C(=O)O)c1C(=O)OC | 116 to 118 °C
30 | CC1(C)CC(OC(=O)CCCCCCCCC(=O)OC2CC(C)(C)N(OCc3ccccc3)C(C)(C)C2)CC(C)(C)N1OCc1ccccc1 | 58 to 61 °C
31 | CCOCCNc1nc(Cl)nc(Cl)n1 | 77 °C
32 | COC(=O)CCCc1cc2cc(Cl)ccc2n1S(=O)(=O)c1ccc2ncsc2c1 | 121 to 123 °C
33 | COc1ccc(Cc2cnc(NCCc3ccccc3Cl)nc2N2CCc3cc(OC)c(OC)cc3C2)cc1OC | 140 to 141 °C
34 | C=CCONC(O)(CC)C1C(=O)C=C(CC)OC1=O (stereo unspecified) | 62.5 to 64 °C
35 | CC(C)Cn1c(CO)nc2c(N)nc3c(c21)CCCC3 | 226 °C
36 | O=c1ccc(C(F)(F)F)cn1-c1ccc([N+](=O)[O-])cc1Cl | 218 °C
37 | COc1nc(C)nc(NC(=O)NS(=O)(=O)c2c(C)cccc2OCCF)n1 | 161 °C
38 | O=C(Nc1ccc(-c2ccc(C(=O)N3CCN4CCC3CC4)o2)cc1)Nc1cccc(C(F)(F)F)c1 | 171 °C
39 | CN(C(=O)N[C@@H](Cc1ccc(Oc2nccc3ccncc23)cc1)C(=O)O)c1ccccc1Cc1ccccc1 | 128 °C
40 | CCCc1c(OCCCCCC(=O)c2ccc(O)c(O)c2)ccc(C(=O)O)c1O | 188 to 191 °C
41 | CCOC(=O)c1c(CS(=O)c2nc3ccccc3[nH]2)nc2cc(OC)c(OC)cc2c1-c1ccc(OC)c(OC)c1 (stereo unspecified) | 160 to 161 °C
42 | O=C(O)C(Cl)(Cl)CCCCCCCCCCCCCCBr | 61 to 63 °C
43 | COc1ccc(-c2ccc(C(F)(F)CC(CC(O)CSc3ccccc3)C(=O)O)cc2)cc1 (stereo unspecified) | 85 to 86 °C
44 | CN(CC(=O)O)C(=S)c1cccc2c(Br)cccc12 | 181 °C
45 | Fc1cc(F)cc(CN2CCN(c3cc(-c4ccccc4)c(C(F)(F)F)nn3)CC2)c1 | 139 °C
46 | O=C1CC2C1CC(O)C2Cl (stereo unspecified) | 69 to 71 °C
47 | COC(=O)CSC=C1C(=O)OC(C)(C)OC1=O | 117 to 118 °C
48 | CCC(CC)Nc1c([N+](=O)[O-])cc(C(C)C)c(CSC#N)c1[N+](=O)[O-] | 68 to 70 °C

Row | Compound | melting point
49 | N#Cc1cc(-n2c3ccccc3[nH]c(=N)[nH]c3ccccc32)ccc1Cl | 225 to 228 °C
50 | Cc1ccc(C)c(Oc2oc(-c3ccc(Cl)cc3)nc2CC(=O)O)c1 | 185 °C
51 | CC12CCC3c4c(O)cc(O)cc4CCC3C1CCC2=O (stereo unspecified) | 245 to 247 °C
52 | OC1(C23CC4CC(CC(C4)C2)C3)CCCCC1 | 166 to 168 °C
53 | Fc1ccc(-c2nccc(Oc3cccc(C(F)(F)F)c3)n2)cc1 | 52 °C
54 | COc1cccc(NC(=O)N2CCc3cc(S(=O)(=O)N4CCN(c5cccc(Cl)c5)CC4)ccc32)c1 | 199 to 200 °C
55 | O=C(CCCCN1CCOCC1)c1ccc2c(c1)Cc1cc(C(=O)CCCCN3CCOCC3)ccc1-2 | 134 to 136 °C
56 | Cc1cc(-c2ccc(C(F)(F)F)cc2)cc(-c2ccnc(-c3cccc(NS(C)(=O)=O)c3)c2)n1 | 196 °C
57 | COC(=O)[C@H]1[C@@H]2CC[C@@](NC(=O)OC(C)(C)C)(C(=O)OC)[C@@H]21 | 193 to 194 °C
58 | NC(=O)c1cc(-c2ccc(Cl)cc2)[nH]c1Cl | > 200 °C
59 | Cc1cc2c(c(C)c1Br)C(=O)C(C)(C)O2 | 63 to 64 °C
60 | CNC(=O)OCC(C)Nc1ncc(Oc2cc(Cl)c(OC)cc2C(C)C)c(N)n1 (stereo unspecified) | 63.5 to 69.4 °C
61 | O=C(Nc1ccc(Cl)cc1C(=O)NCc1ccc2c(c1)OCO2)Oc1ccccc1 | 149 to 150 °C
62 | COc1ccc(C2CCS(=O)(=O)C2)cc1OC1CCCC1 (stereo unspecified) | 89 to 90 °C
63 | C=C1CCCCCCC(C(=O)OCC)NC1=O (stereo unspecified) | 91 to 92 °C
64 | CSc1ccc(/C=C/C(=O)/C=C/C(=O)O)cc1 | 160 to 163 °C
65 | COc1cccc(-c2nc(-c3ccccc3C=O)n[nH]2)c1 | 163 to 165 °C
66 | O=C(Cc1ccc2ccn(C3CCN(CCc4ccccc4F)CC3)c2c1)NCCO | 128 to 129 °C
67 | CCCNC(=O)CCc1ccc2ccn(Cc3ccc(C(=O)NS(=O)(=O)c4ccccc4C)cc3OC)c2c1 | 110 °C
68 | CCCCCCN1N=C(c2ccc(F)cc2)c2cc(F)ccc2CS1(=O)=O | 93 to 96 °C
69 | CC(C)N1CCC(C2c3ccccc3C=Cc3ccccc32)CC1 | 124 to 126 °C
70 | CCOC(=O)CC/C=C(\C)c1sccc1Br | 62 to 64 °C
71 | COC(=O)[C@]1(C)Cc2c([nH]c3ccc(Cl)cc23)[C@@H](c2cccc(O)c2)N1 (racemic) | 240 to 241 °C
72 | CC(C(=O)NCC(=O)OCc1ccccc1)N1CCN(CC(=O)OC(C)(C)C)CCN(CC(=O)OC(C)(C)C)CCN(CC(=O)OC(C)(C)C)CC1 (stereo unspecified) | 116 to 117 °C

Row | Compound | melting point
73 | COc1ccc(C2(C#Cc3cc(C(=O)O)cs3)CCC(=O)CC2)cc1OC1CCCC1 | 75 to 76 °C
74 | O=C(O)CCC(=O)c1ccc(N2CCC3(CC2)OCCO3)cc1 | 130 to 131 °C
75 | CCCn1cc2c(C3C(=O)Nc4ccc(Br)cc43)nc(NCC3CCCO3)nc2n1 (stereo unspecified) | 309 to 312 °C
76 | CCOc1ccc(CCN(C(=O)O)C(=O)[C@H](CCSC)NC(C)=O)cc1OCC | 85 to 90 °C
77 | O=[N+]([O-])c1ccc(-n2nccn2)cc1 | 183 to 184 °C
78 | CN1C(=O)CC(c2ccc(N)cc2)C1C(O)c1ccc(-c2ccccc2)s1 (stereo unspecified) | 221 to 222 °C
79 | Nc1cccc(NNC=O)c1 | 108 to 113 °C
80 | Cn1cc(-c2ccc3c(c2)C(C)(C)CCC3(C)C)cc1C=CC(=O)O | 165 to 166 °C
81 | CCNC(=O)Nc1nc2cc(-c3cccnc3)cc(OCCN(C)C)n2n1 | 200 to 202 °C
82 | Cc1cccc(N2CCOC2=O)c1CNc1cccn2c(C=O)c(C)nc12 | 196 to 197 °C
83 | CCOC(=O)c1[nH]cc2c1NC1=C(C(=O)CCC1)C2c1ccc(Sc2nc3cc(OC)ccc3[nH]2)o1 (stereo unspecified) | 140 °C
84 | O=C1Nc2cccc(-c3cccc(Cl)c3)c2/C1=C/c1ccc[nH]1 | 165 to 167 °C
85 | COc1nc(C)c(C)cc1NC(=S)N1CCN(c2cc(C)cc(C)c2)CC1 | 192 to 193 °C
86 | CCCCc1nc2ccc(C(=O)O)cc2n1Cc1ccccc1Cl | 238 to 241 °C
87 | O=S(=O)(Cc1ccccc1)n1c2cc(O)c(O)cc2c2ccc(O)c(O)c21 | 216 to 218 °C
88 | NC(=NCC(F)(F)F)Nc1nc(CCCCNc2nc3ccccc3[nH]2)cs1 | 183 to 186 °C
89 | O=C(Nc1ccc(-n2nc(C(F)(F)F)cc2C(F)(F)F)cc1)C1CC1c1ccccc1 (stereo unspecified) | 176 to 178 °C
90 | COc1cc(OC)cc(-c2nc[nH]c2-c2ccc(OC(F)F)c(O)c2)c1 | 159 to 161 °C
91 | CCCCCCCCCCCCCCCCCCNC(=O)OCC(CN)OC(=O)NC (stereo unspecified) | 49 to 50.5 °C
92 | CC1(C)C(=O)Nc2cc3[nH]c(-c4ccc(-n5ccnc5)cc4)nc3cc21 | 300 °C
93 | CC(Oc1cc(Cl)ccc1Cl)C(=O)OCc1ccccc1 (stereo unspecified) | 56 to 58 °C
94 | CC(C)(C)C(=O)OC1CCC2C3(O)C=CC4=CC(=O)CCC4(CO)C3CCC12C (stereo unspecified) | 201 to 203 °C
95 | COc1cc(C=C(C=O)C(C=O)=Cc2ccc(OC(C)=O)c(OC)c2)ccc1OC(C)=O | 149 to 151 °C
96 | CCCCc1nc2c(N)nc3ccccc3c2n1CCCCC(=O)N1CCOCC1 | 141 to 143 °C
